Where “and” joins values, the source holds several entries; their conditions need not be identical. Equal entries are not always repeated.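 Each compound was tested at five concentrations against cells in 96-well plates for 48 hours. GI50 = concentration required for 50% inhibition of growth. The concentration for full growth arrest is given as TGI.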
Tests used:
Experiment in all cases: DTP human tumour cell line panel, 48 h
ACHN renal = tested on: ACHN renal
EKVX NSCLC = tested on: EKVX NSCLC
HS 578T breast = tested on: HS 578T breast
M14 melanoma = tested on: M14 melanoma
OVCAR-4 ovarian = tested on: OVCAR-4 ovarian
OVCAR-5 ovarian = tested on: OVCAR-5 ovarian
RXF 393 renal = tested on: RXF 393 renal
SK-MEL-5 melanoma = tested on: SK-MEL-5 melanoma
SN12C renal = tested on: SN12C renal
SR leukemia = tested on: SR leukemia

| SMILES | GI50 (ACHN renal) | TGI (ACHN renal) | GI50 (EKVX NSCLC) | TGI (EKVX NSCLC) | GI50 (HS 578T breast) | TGI (HS 578T breast) | GI50 (M14 melanoma) | TGI (M14 melanoma) | GI50 (OVCAR-4 ovarian) | TGI (OVCAR-4 ovarian) | GI50 (OVCAR-5 ovarian) | TGI (OVCAR-5 ovarian) | GI50 (RXF 393 renal) | TGI (RXF 393 renal) | GI50 (SK-MEL-5 melanoma) [µM] | TGI (SK-MEL-5 melanoma) [µM] | GI50 (SN12C renal) | TGI (SN12C renal) | GI50 (SR leukemia) | TGI (SR leukemia) |
| --- | --- | --- | --- | --- | --- | --- | --- | --- | --- | --- | --- | --- | --- | --- | --- | --- | --- | --- | --- | --- |
| C/C(=C\C(=O)O[C@H]1[C@@H]2[C@H](C)CC[C@H]2[C@]2(C)O[C@@]1(C1CCCCC1)C[C@H]2OC(=O)CO)c1ccccc1 | 0.0147 µM | 6.02 µM | 6.46 µM | 12.5 µM | 0.0101 µM | 0.0295 µM | 7.95 µM | 18.1 µM | 7.25 µM | 13.8 µM | 7 µM | 12.9 µM | 0.0798 µM | 7.12 µM | 6.45 | 11.9 | 0.0228 µM | 7.18 µM | 6.87 µM | 15 µM |
| O=C(CCCc1ccc(N(CCCl)CCCl)cc1)NCc1ccccc1 | 3.91 µM | > 100 µM | 21.6 µM | 91.5 µM | 15.6 µM | > 100 µM | 4.18 µM | 24.2 µM | 12.5 µM | 35.1 µM | 33.1 µM | > 100 µM | 10.5 µM | 25.2 µM | 8.14 | 22.7 | 4.41 µM | > 100 µM | 0.978 µM | 3.66 µM |
| O=c1c2ccccc2nc(-c2cccc([N+](=O)[O-])c2)n1O | – | > 100 µM | – | > 100 µM | – | > 100 µM | – | > 100 µM | – | > 100 µM | – | > 100 µM | – | > 100 µM | – | > 100 | – | > 100 µM | – | > 100 µM |
| Cc1ccc(NC(=O)c2ccc(CN3CCN(C)CC3)cc2)cc1Nc1nc(-c2cccnc2)cs1 | 11.7 µM and 4.15 µM | 24.7 µM and > 10 µM | 13.6 µM and > 10 µM | 29.8 µM and > 10 µM | 8.45 µM and 3.52 µM | 41.6 µM and > 10 µM | 7.66 µM and 3.44 µM | 21.2 µM and > 10 µM | 11.6 µM and 7.8 µM | 26.5 µM and > 10 µM | 16.6 µM and > 10 µM | 31.1 µM and > 10 µM | 2.98 µM and 1.9 µM | 8.41 µM and 4 µM | 2.46 | 9.32 | 13.9 µM and > 10 µM | 36 µM and > 10 µM | 2.72 µM and 1.91 µM | 18.6 µM and 4.67 µM |
| O=P1(NCCCl)OCCCN1CCCl (stereo not given) | – | > 500 µM | – | 447 µM | – | > 500 µM | – | > 500 µM | – | 447 µM | – | 453 µM | – | 445 µM | – | 429 | – | 437 µM | – | > 500 µM |
| CCCCn1c(=O)[nH]c(N)c([C@@H]2c3c([nH]c(=O)n(CCCC)c3=O)Oc3ccc4ccccc4c32)c1=O | 1.8 µM | 3.59 µM | 4.64 µM | 18.8 µM | 4.55 µM | 37.1 µM | 1.92 µM | 4.2 µM | 2.26 µM | 10.8 µM | 3.63 µM | 13.8 µM | 2.17 µM | 4.27 µM | 3.06 | 10.7 | 2.51 µM | 6.94 µM | 0.458 µM | 15.8 µM |

Reference: PubChem BioAssay (NCI)
